Key:
[1] = tested on: glucose uptake by tps1Δ yeast cells; experiment: Zero-trans uptake of radioactive glucose in tps1Δ yeast cells; format: cell-based, S. cerevisiae; conditions: tps1∆ cells, 2.5 mM glucose; read-out: IC50 values for 2.5 mM glucose uptake in tps1∆ cells
Experimental: (§1) Zero-trans uptake of radioactively labeled [U-^14C]glucose, [U-^14C]fructose or [U-^14C]galactose by S. cerevisiae cells was determined in accordance with previous studies ([45], [75]). Cells were grown on different carbon sources depending on the experiment. For measuring glucose uptake activity in the tps1Δ and tps1Δ hxtΔ strains, cells were grown on YP medium containing 325 mM glycerol (measurement of 10 s). Typically, for compound characterization and kinetic studies in wild type and tps1Δ strains, cells were (pre)grown on Complete Synthetic medium supplemented with 110 mM galactose (measurement of 10 s). In the experiments on the influence of hexokinase activity on the sugar uptake rate, the measurement duration was shortened to 5 s and cells were always grown on YP medium containing 325 mM glycerol and 430 mM ethanol. After harvesting, cells were washed twice with ice-cold 25 mM MES-buffer pH 6, and resuspended in their respective medium without sugar to a final concentration of 45 mg (wet weight)/mL. The amount of added tracer was estimated to give a response close to at least 1000 counts per min in order to adequately counter background noise. Cells were first preincubated for 10 min at 30°C with the compound to acclimate the cells to the temperature and to allow adequate interaction with the compound prior to uptake. Next, hexose sugar was mixed with the cell suspension, which was then incubated at 30°C for 5 or 10 s, depending on the experiment, after which the cells were rapidly filtered over a glass microfiber filter (Whatman GF/C) and washed three times with ice-cold dH2O. The loaded filter was transferred to a scintillation vial containing 3 mL liquid scintillation cocktail (Ultima-Flo M, Perkin Elmer) and counted using the Hidex 300 SL. Three blank measurements per strain were typically included to account for background signal, for which the cells were first quenched before adding the radioactive label.

[2] = tested on: yeast tps1Δ strain; experiment: Growth (rescue) of the yeast tps1Δ strain on galactose with or without glucose; format: cell-based, S. cerevisiae; conditions: 2.5 mM glucose
Experimental: Growth curves were made by measuring OD595 in a 96-well plate using the Multiskan™ FC Microplate Photometer (Thermo Fisher Scientific). Typically, for tps1Δ rescue experiments, cells were (pre)grown in Complete Synthetic medium containing 110 mM galactose. Compounds were always added 10 min prior to glucose addition to ensure maximal interaction between the cells and compounds. Cells originating from the preculture were harvested, washed in medium without sugar, after which they were resuspended to an OD of 0.1 in 200 µL of the appropriate medium. At least three technical replicates were included per condition. OD595 was measured at 30°C every 30 min with a 10-min shaking interval.

[3] = tested on: A549 lung adenocarcinoma cells; experiment: Proliferation of A549 lung adenocarcinoma cells; format: cell-based, human; conditions: for Selected from primary screen for growth inhibition of A549 cells at 50 µM: RPMI 1 mM glucose; for Selected for having an IC50 ratio (10 mM glucose : 1 mM glucose) of A549 growth higher than WBC-A: ratio of IC50 on 10 mM and 1 mM glucose, compared to WBC-A
Experimental: For both adherent A549 and MCF10A H-RAS^V12 cell lines, growth curves were established using the IncuCyte® ZOOM technology. By collecting phase contrast images, the IncuCyte® software provides a calculated confluency percentage from which growth curves can be deducted. The cell number/density was measured by calculating the confluency of phase objects (cells) sticking on the bottom of the well. Cells were seeded at a density of 1000 - 1500 cells/well in a Nunc-Edge™ 96-well plate (Thermo Fisher Scientific) and growth was typically measured over 3 to 5 days. For the measurement of apoptosis induction using the MCF10A H-RAS^V12 cell line, the IncuCyte® Caspase-3/7 green dye was added to the medium in the recommended concentration at the beginning of the growth curve experiment. Apoptosis was detected by taking fluorescent images by excitation at 488 nm followed by IncuCyte® software analysis. Cell growth of the KMS-12-PE multiple myeloma cell line, which grows in suspension, was measured by manual cell counting. Cells were initially seeded at a density of 10^4 cells/well and incubated for 4 days after which the cell number was counted. For all cell lines, the same medium used for pregrowth was also used for the growth curve experiment, albeit with different glucose concentrations depending on the experimental design. With compound administration, the final concentration of DMSO never exceeded 0.1%. Typically, at least four technical repeats were included per condition.

[4] = tested on: glucose uptake by wild type yeast cells; experiment: Zero-trans uptake of radioactive glucose in wild type yeast cells; format: cell-based, S. cerevisiae
Experimental: as §1

[5] = tested on: hxk2Δ hxk1Δ GLK1 yeast cells; experiment: Sugar uptake in hxk2Δ hxk1Δ GLK1 yeast cells; format: cell-based, S. cerevisiae; conditions: 250 µM CCCP or 50 µM WBC-A 10 min prior; 100 mM maltose with the tracer
Experimental: as §1

Compound | IC50 [1] [µM] | Rescue of the tps1∆ strain on 2.5 mM glucose at 100 µM [2] | Minimal rescue concentration for growth of tps1∆ cells on 2.5 mM glucose [2] [µM] | Selected from primary screen for growth inhibition of A549 cells at 50 µM ([3]; 50 µM) | Selected for having an IC50 ratio (10 mM glucose : 1 mM glucose) of A549 growth higher than WBC-A [3] | type of inhibition of glucose uptake (Lineweaver-Burk) [4] | IC50 ([4]; radioactive glucose, 10 s, read-out: IC50 for inhibition of 2.5 mM glucose uptake) [µM] | Ki ([4]; read-out: Ki (Dixon plot) for glucose uptake) [µM] | inhibition of A549 cell proliferation in prescreening ([3]; 50 µM, 1 mM glucose, three days) | fructose uptake at tracer concentration [5] | glucose uptake at tracer concentration [5]
Cc1nc(SCCO)c2c(-c3cccs3)csc2n1 [WBC-47A] | 15.6 | Yes | 6.25 | Yes | Lower IC50 ratio |  |  |  |  |  | 
Cc1nc(SCC(=O)Nc2cc(C)on2)c2c(-c3cccs3)csc2n1 [WBC-10C] | 24.8 | Yes | 6.25 | Yes | Lower IC50 ratio |  |  |  |  |  | 
Cc1nc(SCC(N)=O)c2c(-c3cccs3)csc2n1 [WBC-14A] | 27.9 | Yes | 25 | No |  |  |  |  |  |  | 
Cc1nc(SCC(=O)NC(N)=O)c2c(-c3cccs3)csc2n1 [WBC-6B] | 10.2 | Yes | 12.5 | Yes | Lower IC50 ratio |  |  |  |  |  | 
Cc1nc(SCCN2CCOC2=O)c2c(-c3cccs3)csc2n1 [WBC-26C] | 23.8 | Yes | 25 | No |  |  |  |  |  |  | 
CCCc1nnc(Sc2nc(C)nc3scc(-c4cccs4)c23)[nH]1 [WBC-50C] | 67.8 | Yes | 50 | Yes | Lower IC50 ratio |  |  |  |  |  | 
CCn1c(Sc2nc(C)nc3scc(-c4cccs4)c23)nnc1-c1ccncc1 [WBC-43C] | 8.93 | Yes | 12.5 | Yes |  |  |  |  |  |  | 
Cc1nc(SCCN2CCOCC2)c2c(-c3cccs3)csc2n1 [WBC-44A] | 61.8 | Yes | 50 | Yes | Lower IC50 ratio |  |  |  |  |  | 
Cc1nc(Sc2nnc(C(F)(F)F)n2C)c2c(-c3cccs3)csc2n1 [WBC-54C] | 64.7 | Yes | 50 | Yes | Lower IC50 ratio |  |  |  |  |  | 
Cc1nc(Sc2nnc3n2CCC(CN=[N+]=[N-])CC3)c2c(-c3cccs3)csc2n1 (centres unmarked) [WBC-87C] | 11.1 | Yes | 12.5 | Yes | Lower IC50 ratio |  |  |  |  |  | 
Cc1nc(Sc2nnc(-c3cccnc3)n2C)c2c(-c3cccs3)csc2n1 [WBC-23A] | 8.6 | Yes | 25 | Yes | Lower IC50 ratio |  |  |  |  |  | 
CC(=O)NCc1ccc(C(=O)CSc2nc(C)nc3scc(-c4cccs4)c23)o1 [WBC-29B] | 9.23 | Yes | 6.25 | No |  |  |  |  |  |  | 
CCn1c(CCC(N)=O)nnc1Sc1nc(C)nc2scc(-c3cccs3)c12 [WBC-16C] | 49.6 | Yes | 50 | Yes | Lower IC50 ratio |  |  |  |  |  | 
Cc1nc(SCC(=O)N2CC(C)OC(C)C2)c2c(-c3cccs3)csc2n1 (centres unmarked) [WBC-5B] | 22.5 | Yes | 12.5 | No |  |  |  |  |  |  | 
CCN(C(=O)CSc1nc(C)nc2scc(-c3cccs3)c12)C1CCS(=O)(=O)C1 (centres unmarked) [WBC-2C] | 2 | Yes | 1.562 | Yes | Lower IC50 ratio | mixed type of inhibition | 1.98 | 1.45 |  |  | 
Cc1nc(SCC(=O)N(C)CCC#N)c2c(-c3cccs3)csc2n1 [WBC-7B] | 5.41 | Yes | 6.25 | No |  |  |  |  |  |  | 
COC(=O)CSc1nc(C)nc2scc(-c3cccs3)c12 [WBC-53A] | 26.8 | Yes | 12.5 | No |  |  |  |  |  |  | 
COCCCNC(=O)CSc1nc(C)nc2scc(-c3cccs3)c12 [WBC-15B] | 32.7 | Yes | 25 | No |  |  |  |  |  |  | 
C=C1[C@@H](C)[C@H]2[C@H](Cc3ccccc3)NC(=O)[C@]23OC(=O)/C=C/[C@H](O)CCC[C@@H](C)C/C=C/[C@H]3[C@@H]1O [Cytochalasin B, reference compound] |  |  |  |  |  |  |  |  | the strongest inhibitor of cell proliferation in this assay |  | 
Cc1nc(SCC(=O)NC(C)(C)C)c2c(-c3cccs3)csc2n1 [WBC-32B] | 30.3 | Yes | 12.5 | Yes | Lower IC50 ratio |  |  |  |  |  | 
N#CC(C#N)=NNc1cccc(Cl)c1 [CCCP, reference compound] |  |  |  |  |  |  |  |  |  | not that of fructose | lowered the glucose uptake rate
Cc1nc(Sc2nnc(-c3ccncc3)n2C)c2c(-c3cccs3)csc2n1 [WBC-26A] | 5.35 | Yes | 25 | Yes | Lower IC50 ratio |  |  |  |  |  | 
